The text below walks through data of ChEMBL document CHEMBL1131216, “Anhydrolide macrolides. 2. Synthesis and antibacterial activity of 2,3-anhydro-6-O-methyl 11,12-carbazate erythromycin A analogues” (1998).

By ED50 is commonly meant the dose that gives a 50% effect, or the effect in half of the subjects. Low values mean an effect at a small dose, high ones a need for a large dose.

Converted amounts (≈) assume the structure as drawn.

Holding throughout (format): functional
For assay [1], the system named is Streptococcus pneumoniae. Description: In vitro antibacterial activity of ATCC 6303 strain of Gram positive bacteria Streptococcus pneumoniae.
Assay [2] concerns Streptococcus pneumoniae. Put plainly: In vitro antibacterial activity of 5979 strain of Gram positive bacteria Streptococcus pneumoniae.
Assay [3] concerns Streptococcus pyogenes. Description: In vitro antibacterial activity of PIU2584 strain of Gram positive bacteria Streptococcus pyogenes.
Assay [4] has as its system Streptococcus pneumoniae. Put plainly: In vivo antibacterial activity of ATCC 6303 strain of Gram positive bacteria Streptococcus pneumoniae.
For assay [5], the system named is Staphylococcus aureus. Description: In vitro antibacterial activity of A-5278 strain of Gram positive bacteria Staphylococcus aureus.
Assay [6] concerns Staphylococcus aureus. Description: In vitro antibacterial activity of A5177 strain of Gram positive bacteria Staphylococcus aureus.
The test system of assay [7] is Staphylococcus aureus. Put plainly: In vivo antibacterial activity of NCTC-10649 strain of Gram positive bacteria Staphylococcus aureus.
For assay [8], the system named is Streptococcus pyogenes. Put plainly: In vitro antibacterial activity of 930 strain of Gram positive bacteria Streptococcus pyogenes.
Assay [9] concerns Streptococcus pyogenes. Description: In vitro antibacterial activity of EES61 strain of Gram positive bacteria Streptococcus pyogenes.
Assay [10] relates to Staphylococcus aureus. Description: In vivo antibacterial activity of NCTC-10649 strain of Gram positive bacteria Staphylococcus aureus (95% confidence interval).
For assay [11], the system named is Streptococcus pneumoniae. Description: In vitro antibacterial activity of 5649 strain of Gram positive bacteria Streptococcus pneumoniae.
For a further assay, the system named is Haemophilus influenzae. Put plainly: In vitro antibacterial activity of DILL strain of Gram negative bacteria Haemophilus influenzae.
The test system of assay [12] is Streptococcus pneumoniae. Put plainly: In vivo antibacterial activity of ATCC 6303 strain of Gram positive bacteria Streptococcus pneumoniae (95% confidence interval).
For assay [13], the system named is Staphylococcus aureus. Description: In vitro antibacterial activity of 6538P strain of Gram positive bacteria Staphylococcus aureus.

Turning to `CC[C@H]1OC(=O)/C(C)=C/[C@H](C)[C@@H](O[C@@H]2O[C@H](C)C[C@H](N(C)C)[C@H]2O)[C@@](C)(OC)C[C@@H](C)C(=O)[C@H](C)[C@H]2N(NC/C=C/c3ccc([N+](=O)[O-])cc3)C(=O)O[C@]12C`, the MIC in the assay with Streptococcus pneumoniae [1] is 0.03 mg/L (≈ 0.0388 µM); with Streptococcus pneumoniae [2], 64 mg/L (≈ 82.8 µM); against Streptococcus pyogenes [3], 1 mg/L (≈ 1.29 µM); against Streptococcus pneumoniae [4], 0.004 mg/L (≈ 0.00518 µM); in the assay with Staphylococcus aureus [5], 100 mg/L (≈ 129 µM); with Staphylococcus aureus [6] it was 0.2 mg/L (≈ 0.259 µM). In addition, the MIC against Staphylococcus aureus [7] came out at 0.2 mg/L (≈ 0.259 µM); in the assay with Streptococcus pyogenes [8], 32 mg/L (≈ 41.4 µM); against Streptococcus pyogenes [9], 0.06 mg/L (≈ 0.0776 µM); against Streptococcus pneumoniae [11] it was 1 mg/L (≈ 1.29 µM); against Haemophilus influenzae it was 8 mg/L (≈ 10.4 µM); against Staphylococcus aureus [13], 0.2 mg/L (≈ 0.259 µM). Further, the ED50 amounted to 50.1 mg/kg/day with Staphylococcus aureus [10] and 16.8 mg/kg/day in the assay with Streptococcus pneumoniae [12].
